Each structure is given as a SMILES string.

The target of assay [1] is BTK (Homo sapiens (Human), UniProt Q06187). Put plainly: Z'-LYTE kinase inhibition assay against BTK. Type of assay: biochemical. The conditions noted are these: compound at 100 nM; ATP concentration at Km. As for the experimental part:
Inhibitory activities of compounds against BTK, EGFR T790M, EGFR L858R, and EGFR L858R/T790M were measured using Z′-LYTE® Method from Life Technologies as briefly described in the following.
Test Compounds are screened in […] DMSO (final) in the well. For 10 point titrations, 3-fold serial dilutions are conducted from the starting concentration. All ATP Solutions are diluted to a 4× working concentration in Kinase Buffer (50 mM HEPES pH 7.5, 0.01% BRIJ-35, 10 mM MgCl2, 1 mM EGTA). Peptide/Kinase Mixtures are diluted to a 2× working concentration in the appropriate Kinase Buffers as described below. • (i) Peptide/Kinase Mixtures for measurement of EGFR (ErbB1) L858R: • The 2×EGFR (ErbB1) L858R/Tyr 04 mixture is prepared in 50 mM HEPES pH 7.5, 0.01% BRIJ-35, 10 mM MgCl2, 4 mM MnCl2, 1 mM EGTA, 2 mM DTT. The final 10 μL Kinase Reaction consists of 0.2-1.68 ng EGFR (ErbB1) L858R and 2 μM Tyr 04 in 50 mM HEPES pH 7.5, 0.01% BRIJ-35, 10 mM MgCl2, 2 mM MnCl2, 1 mM EGTA, 1 mM DTT. After the 1 hour Kinase Reaction incubation, 5 μL of a 1:64 dilution of Development Reagent B is added. • (ii) Peptide/Kinase Mixtures for measurement of EGFR (ErbB1) T790M: The 2×EGFR (ErbB1) T790M/Tyr 04 mixture is prepared in 50 mM HEPES pH 6.5, 0.01% BRIJ-35, 10 mM MgCl2, 1 mM EGTA, 0.02% NaN3. The final 10 μL Kinase Reaction consists of 3.9-30.2 ng EGFR (ErbB1) T790M and 2 μM Tyr 04 in 50 mM HEPES pH 7.0, 0.01% BRIJ-35, 10 mM MgCl2, 1 mM EGTA, 0.01% NaN3. After the 1 hour Kinase Reaction incubation, 5 μL of a 1:64 dilution of Development Reagent B is added. • (iii) Peptide/Kinase Mixtures for measurement of EGFR (ErbB1) L858R/T790M: The 2×EGFR (ErbB1) T790M L858R/Tyr 04 mixture is prepared in 50 mM HEPES pH 6.5, 0.01% BRIJ-35, 10 mM MgCl2, 1 mM EGTA, 0.02% NaN3. The final 10 μL Kinase Reaction consists of 0.38-4.22 ng EGFR (ErbB1) T790M L858R and 2 μM Tyr 04 in 50 mM HEPES pH 7.0, 0.01% BRIJ-35, 10 mM MgCl2, 1 mM EGTA, 0.01% NaN3. After the 1 hour Kinase Reaction incubation, 5 μL of a 1:64 dilution of Development Reagent B is added. • (iv) Peptide/Kinase Mixtures for measurement of BTK: The 2×BTK/Tyr 01 mixture is prepared in 50 mM HEPES pH 7.5, 0.01% BRIJ-35, 10 mM MgCl2, 1 mM EGTA. […]
Reaction starts by 30-second shaking of mixture consisting of 2.5 μL 4× test compound, 5 μL 2× kinase reaction mixture and 2.5 μL 4×ATP Solution on Bar-coded Corning, low volume NBS, black 384-well plate (Corning Cat. #3676). […] Finally fluorescence is read by plate reader. […]
To determine IC50 of a compound against a kinase, a series of concentrations of the compound were tested for the inhibition. IC50 was calculated by plotting the concentration of compound vs the percentage of inhibition in treated wells using GraphPad Prism 5. […]

Assay [2] has as its system OCI-LY10 cells. The assay can be described thus: OCI-Ly10 cell proliferation, Alamar Blue (resazurin), 72 hours. Type of assay: cell-based. As for the experimental part: OCI-Ly10 cells were cultured in Iscove's DMEM supplemented with 20% fetal bovine serum and IX penicillin/streptomycin/glutamine. The cells were maintained in T175 flasks under 5% CO2 in a 37° C. humidified incubator for 5 days prior to plating and assay.
Cells were pooled by centrifugation (200 ref, 8 minutes) and resuspended in fresh medium to a concentration of 2.00E+05 cells/ml. 200 μl of the cell suspension was added to each well (40,000 cells/well) of a black-walled 96 well plate to which 1 μl of compound (n=3 per concentration) in 100% DMSO (0.5% final concentration) was added per well. Vehicle and cell free wells were also included in the assay. The dosed cells were cultured under normal conditions for 72 hours.
Cell proliferation is measured using the dye Alamar Blue (resazurin). Resazurin is reduced to resorufin by cellular enzymes and is fluorescent (544 nm excitation, 612 nm emission). Fluorescence intensity is proportional to cell number. Resazurin was prepared in PBS to a stock concentration of 440 μM. 40 μl of the 440 μM resazurin stock solution was added 3 hours prior to the 72 hour termination of the assay. The plate was returned to normal culture conditions and fluorescence measurements were collected using a Cytation3 multimode plate reader (Biotek) at 72 hours.
The scale utilized in Table 8 is as follows: ++ less than 50 nM and + greater than 50 nM.

BTK, sequence (Q06187 whole entry): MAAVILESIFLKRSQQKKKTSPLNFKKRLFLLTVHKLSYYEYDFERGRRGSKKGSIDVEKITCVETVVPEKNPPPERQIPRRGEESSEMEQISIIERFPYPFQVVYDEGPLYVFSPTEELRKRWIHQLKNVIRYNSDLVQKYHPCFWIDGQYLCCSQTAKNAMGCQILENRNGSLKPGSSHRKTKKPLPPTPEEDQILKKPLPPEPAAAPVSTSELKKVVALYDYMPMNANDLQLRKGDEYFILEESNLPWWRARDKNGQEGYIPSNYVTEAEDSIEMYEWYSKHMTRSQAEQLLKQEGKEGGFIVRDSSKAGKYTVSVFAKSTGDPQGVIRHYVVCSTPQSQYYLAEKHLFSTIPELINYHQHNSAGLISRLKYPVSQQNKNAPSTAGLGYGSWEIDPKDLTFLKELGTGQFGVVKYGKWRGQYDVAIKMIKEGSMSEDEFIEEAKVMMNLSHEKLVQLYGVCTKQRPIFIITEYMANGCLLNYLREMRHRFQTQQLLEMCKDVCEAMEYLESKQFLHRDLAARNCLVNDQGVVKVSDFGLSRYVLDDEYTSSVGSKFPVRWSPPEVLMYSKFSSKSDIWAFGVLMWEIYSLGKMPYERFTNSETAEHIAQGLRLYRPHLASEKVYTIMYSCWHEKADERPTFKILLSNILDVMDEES

For `C=CC(=O)N1CCC(c2cc(-c3ccc(C(=O)Nc4cccc(F)c4)nc3)cc3cncnc23)C1` (stereo not drawn) [Example C097, 5-(8-(1-acryloylpyrrolidin-3-yl)quinazolin-6-yl)-N-(3-fluorophenyl)picolinamide], the “% Inhibition against BTK” value in assay [1] is listed as “+ (less than 50% inhibition)”.
Still for that read-out and setting: under `C=CC(=O)Nc1cccc(-c2cc(-c3ccc(C(=O)Nc4ccccc4)nc3)cc3cnc(N)nc23)c1` [Example C059, 5-(8-(3-acrylamidophenyl)-2-aminoquinazolin-6-yl)-N-phenylpicolinamide] stands “+ (less than 50% inhibition)”.
Usually IC50 stands for the concentration at which inhibition is half-maximal. Lower therefore signals greater potency in that assay. With `C=CC(=O)Nc1cccc(-c2cc(-c3cccnc3)cc3cnc(N)nc23)c1` [Example C035, N-(3-(2-amino-6-(pyridin-3-yl)quinazolin-8-yl)phenyl)-acrylamide], in assay [1], the “% Inhibition against BTK” value is recorded as “++ (more than 50% inhibition)”. Moreover, the IC50 in assay [2] was greater than 50 nM.
With `C=CC(=O)Nc1cccc(-c2cc(-c3ccc(Oc4ncccc4F)cc3F)cc3cncnc23)c1` [Example C105, N-(3-(6-(2-fluoro-4-((3-fluoropyridin-2-yl)oxy)-phenyl)quinazolin-8-yl)-phenyl)acrylamide], the “% Inhibition against BTK” value in assay [1] was “++ (more than 50% inhibition)”. The molecule also returned an IC50 in assay [2] of less than 50 nM.
